Activity calls are given as the source filed them.
Tests used:
[1] = target: T1, Rac GTPase-activating protein 1 (Homo sapiens, UniProt Q9H0H5); experiment: MgcRacGAP GTPase-activating activity inhibitors, confirmation, biochemical, ADP Hunter fluorescence, primary and confirmatory (AID 624330); assay type: functional
T1 sequence (Q9H0H5 whole entry): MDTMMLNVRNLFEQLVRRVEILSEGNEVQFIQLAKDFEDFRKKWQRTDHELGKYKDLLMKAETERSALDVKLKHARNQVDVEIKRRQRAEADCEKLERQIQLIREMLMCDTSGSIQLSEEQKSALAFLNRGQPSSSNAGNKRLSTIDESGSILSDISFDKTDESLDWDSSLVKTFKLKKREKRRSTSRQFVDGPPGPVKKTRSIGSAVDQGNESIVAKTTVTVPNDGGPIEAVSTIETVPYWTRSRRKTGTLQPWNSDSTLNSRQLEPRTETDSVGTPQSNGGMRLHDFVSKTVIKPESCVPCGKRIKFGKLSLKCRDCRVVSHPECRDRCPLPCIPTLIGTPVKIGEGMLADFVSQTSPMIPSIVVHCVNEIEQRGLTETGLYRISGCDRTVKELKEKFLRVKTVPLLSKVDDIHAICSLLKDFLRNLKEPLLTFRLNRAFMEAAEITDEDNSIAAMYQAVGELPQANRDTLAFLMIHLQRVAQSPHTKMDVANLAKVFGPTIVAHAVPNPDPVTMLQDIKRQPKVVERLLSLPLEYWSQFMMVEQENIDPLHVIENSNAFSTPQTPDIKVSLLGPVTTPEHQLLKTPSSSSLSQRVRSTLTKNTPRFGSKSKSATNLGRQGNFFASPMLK

[2] = target: T2, Calpain-2 catalytic subunit (Sus scrofa, UniProt P43367); experiment: pig calpain II inhibitor potency, dose response, biochemical, fluorogenic peptide substrate (AID 1420); assay type: functional
T2 sequence (P43367 whole entry): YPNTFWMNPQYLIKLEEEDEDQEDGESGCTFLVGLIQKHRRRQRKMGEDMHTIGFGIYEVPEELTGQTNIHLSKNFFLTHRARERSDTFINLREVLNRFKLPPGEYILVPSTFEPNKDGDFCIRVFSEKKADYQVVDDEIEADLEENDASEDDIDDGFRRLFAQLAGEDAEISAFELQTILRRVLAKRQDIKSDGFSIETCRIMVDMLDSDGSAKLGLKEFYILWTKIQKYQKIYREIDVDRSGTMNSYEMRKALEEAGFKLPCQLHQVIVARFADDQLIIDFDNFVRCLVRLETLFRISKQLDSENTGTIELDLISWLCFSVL

[3] = HEp-2 cell cytotoxicity, dose response, cytotoxicity control for RSV inhibitor project, HTS (AID 2410); assay type: functional; conditions: human respiratory syncytial virus
[4] = growth suppression of PTEN-null colon cells, dose response, cell-based, HCT116 PTEN knockout (AID 1047); assay type: functional;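 note: HCT116 colon tumor cells with PTEN knocked out; cells exposed to compound for 60 hours before readout; potency for loss of cell viability measured by luminescence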
[5] = growth suppression of beta-catenin-knockout colon cells, dose response, cell-based, HCT116, human colon tumor (AID 1045); assay type: functional;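 note: HCT116 colon tumor cells with beta catenin knocked out; cells exposed to compound for 60 hours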
[6] = inhibitors of firefly luciferase expression or activity, dose response, H4 neuroglioma cells, luminescence (AID 1990); assay type: functional, cell-based
[7] = Luminescence Cell-Based Dose Response HTS to Identify Inhibitors of 5'UTR Stem-Loop Driven Prion Protein mRNA Translation in H4 Neuroglioblastoma Cells. [Related pubchem assays: 1827 (Project Summary), 1813 (Primary HTS)]; assay type: functional
[8] = inhibitors of SNCA 5'UTR-driven reporter translation, confirmation, H4 neuroglioma cells, luminescence (AID 1988); assay type: functional, cell-based
[9] = inhibitors of intracellular T. cruzi replication, confirmation, NIH3T3 host cells, beta-gal luminescence (AID 2044); assay type: functional, cell-based;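 note: intracellular parasites grown in NIH/3T3 mouse fibroblasts as host cells; luminescent beta-galactosidase reporter signal from transgenic T. cruzi replicating inside host cells; inhibitors lower the luminescence signal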
[10] = cytotoxicity toward NIH3T3 fibroblasts, dose response, counter-screen, cell-based, ATP luminescence, mouse fibroblasts (AID 2010); assay type: functional;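 note: cells exposed to compound for about 90 hours before reading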
[11] = NIH-3T3 fibroblast cytotoxicity, dose response, cytotoxicity control, cell-based, fluorescence, Alamar Blue, secondary assay (AID 2327); assay type: functional;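 note: NIH-3T3 mouse fibroblasts cultured with fluconazole at 8 µg/mL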
Cytochrome P450 2C9 = Cytochrome P450 2C9 (Homo sapiens, UniProt P11712)
Cytochrome P450 2C9, sequence (P11712 whole entry): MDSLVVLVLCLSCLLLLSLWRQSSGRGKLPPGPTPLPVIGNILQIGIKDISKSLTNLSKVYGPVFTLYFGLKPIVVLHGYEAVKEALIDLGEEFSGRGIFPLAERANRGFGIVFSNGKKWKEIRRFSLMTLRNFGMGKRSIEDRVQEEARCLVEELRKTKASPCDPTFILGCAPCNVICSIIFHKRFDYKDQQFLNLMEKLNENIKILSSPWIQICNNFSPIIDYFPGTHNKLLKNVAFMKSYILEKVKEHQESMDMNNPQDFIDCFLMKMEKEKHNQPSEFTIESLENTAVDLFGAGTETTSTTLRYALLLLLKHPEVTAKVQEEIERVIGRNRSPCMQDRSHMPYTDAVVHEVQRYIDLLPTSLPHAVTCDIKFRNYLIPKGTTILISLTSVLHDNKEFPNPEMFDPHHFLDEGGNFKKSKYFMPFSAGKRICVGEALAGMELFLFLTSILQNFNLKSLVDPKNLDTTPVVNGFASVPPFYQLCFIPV

INS1 = experiment: beta cell apoptosis inhibitors, cytokine rescue, dose response, luminescence, retest (AID 449756); assay type: functional, cell-based; conditions: Rattus norvegicus;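 note: cell death triggered by IL-1 beta plus TNF-alpha plus IFN-gamma mixture; protective hits raise ATP signal compared with cytokine alone wells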
[12] = Luminescence Cell-Based Dose Retest to Confirm Inhibitors of Cancer Stem Cells. [Related pubchem assays (depositor defined):AID2717, AID2721]; assay type: functional; conditions: Homo sapiens
[13] = test system: Streptococcus sp. 'group A'; experiment: growth inhibition of control SK(-) GAS strain, dose response, counter-screen for streptokinase expression inhibitor project, luminescence, kanamycin, BacTiterGlo, confirmation (AID 1900); assay type: functional, organism-based
Streptococcus = experiment: Group A Streptococcus viability loss, dose response, counter-screen for streptokinase expression inhibitor project, luminescence, BacTiterGlo (AID 1915); assay type: functional, organism-based;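 note: potency for reduction of bacterial viability or growth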

For `Oc1ccc(NCc2ccccc2OCc2ccccc2F)cc1`, the IC50 [1] was 71.4 µM (active).

With `C=CCNc1cnn(-c2ccc(C)cc2)c(=O)c1Sc1ccc(C)cc1` the IC50 [2] was > 50 µM (not active).

In the case of `C=CCn1c(SCC(C)=O)nc2scc(-c3ccc(C)o3)c2c1=O`, the CC50 [3] is reported as 13.5 µM (active).

For `O=[N+]([O-])C(=C1Nc2ccccc2N1)C(Cl)=C(Cl)Cl`, the IC50 [2] was 27.8 µM (not active).

In the case of `Cc1ccc(C)c(OCC(O)CN2CCC(CN3C(=O)c4cccc5cccc(c45)C3=O)CC2)c1` (stereo not given), the EC50 [4] is reported as 4.42 µM (active) and the EC50 [5] is reported as 4.8 µM (active).

For `CC1=CC(C)(C)Nc2ccccc21`, the EC50 [6] was > 120 µM (not active), the EC50 [7] was > 120 µM (not active) and the EC50 [8] was > 120 µM (not active). For the same molecule, the EC50 [9] was 4.5 µM (active) and the EC50 [10] was > 60 µM (not active).

For `Cc1ccc(N2NC3(CCN(C(N)=O)CC3)NC2=O)cc1`, the EC50 [11] was 28.6 µM (active).

For `COc1ccc(NC(=O)C2CCCN(S(=O)(=O)c3cccc4cccnc34)C2)c(OC)c1` (stereo not given), the IC50 [2] was 4.57 µM (not active).

For `Cc1cccc(Oc2ccc(S(=O)(=O)N3CCCCC3)cc2N)c1`, the IC50 [2] was 11.2 µM (not active).

For `CCOc1cc(C(=O)NCC(C)(C)CNC(=O)c2cc(OCC)c(OCC)c(OCC)c2)cc(OCC)c1OCC`, the CC50 [3] was 27.7 µM (active).

For `O=C(COC(=O)CC1c2ccccc2CCN1S(=O)(=O)c1ccccc1)Nc1ccccc1` (stereo not given), the IC50 [2] was 8.09 µM (not active).

In the case of `CCCCc1nc2ccccc2c(NC(=O)CN2CCN(C)CC2)c1CCC`, the IC50 [1] is reported as 50.3 µM (active).

With `N#CC1=C(N)Oc2cc(O)ccc2C1C1CCCCC1` (stereo not given) the EC50 [4] was 12.1 µM (active) and the EC50 [5] was 13.2 µM (active).

In the case of `Cc1ccccc1N1C(=O)C(Oc2ccc(Cl)cc2)C1CNCCCOC(C)C` (stereo not given), the EC50 [6] is reported as 27 µM (active), the EC50 [7] is reported as 119 µM (active) and the EC50 [8] is reported as > 120 µM (not active).

For `Oc1ccc(Cl)cc1-c1cc(C(F)(F)C(F)F)nc(-c2ccccc2)n1`, the EC50 [6] was > 120 µM (not active), the EC50 [7] was > 120 µM (not active) and the EC50 [8] was > 120 µM (not active).

In the case of `CCc1ccc2c(c1)c1nnc(NN)nc1n2CC`, the EC50 [4] is reported as 30.8 µM (active) and the EC50 [5] is reported as 31.1 µM (active).

In the case of `N#Cc1cc([N+](=O)[O-])ccc1NC(=O)COC(=O)C12CC3CC(CC(C3)C1)C2`, the IC50 [2] is reported as 14.4 µM (not active).

With `CS(=O)(=O)N1CCc2cc(NC(=O)c3ccc(Cl)cc3Cl)ccc21` the IC50 [2] was 13.7 µM (not active).

With `CCc1ccc(-c2cc(C(=O)NCCCn3ccnc3)c3ccccc3n2)s1` the CC50 [3] was 28.4 µM (active).

For `COc1cc(CNc2ncc(-c3ccc(Br)cc3)n2C)cc(OC)c1O`, the IC50 [1] was 52 µM (active).

For `OC(COc1ccc2cc(Br)ccc2c1)CN1CCCC1` (stereo not given), the EC50 [9] was 3.4 µM (active), the EC50 [4] was 17 µM (active) and the EC50 [10] was 11.5 µM (active). The EC50 [5] was 15.6 µM (active).

With `Cc1cc(N)n(-c2ccc3ccccc3c2)n1` the AC50 (Cytochrome P450 2C9) was 35.5 µM (inconclusive).

For `Oc1c([C@H](Nc2ccccn2)c2ccccc2)ccc2cccnc12`, the AC50 (Cytochrome P450 2C9) was 6.31 µM (inconclusive).

In the case of `O=C(C1=C[C@H](c2ccc(C(F)(F)F)cc2)C[C@H](OCc2ccc(CO)cc2)O1)N1CCCCCCC1`, the IC50 [2] is reported as 14.8 µM (not active).

In the case of `CC1CCCCN1C(=O)c1cc(-c2ccc(Cl)c(Cl)c2)on1` (stereo not given), the IC50 [2] is reported as 3.9 µM (not active).

For `Cc1nc(C(=O)O)nn1-c1ccc([N+](=O)[O-])cc1`, the EC50 [6] was > 120 µM (not active), the EC50 [7] was 118 µM (active) and the EC50 [8] was > 120 µM (not active).

With `COc1ccc(Br)cc1CN1CCN(C(=O)c2ccc(F)cc2)CC1` the IC50 [1] was 212 µM (active).

For `CC(=O)NC(=S)Nc1ccc(-c2nc3ccc(C)cc3s2)cc1`, the EC50 [4] was 50 µM (active) and the EC50 [5] was 112 µM (active).

For `Cc1ccnc(NC(=O)CCCOc2ccc(Cl)cc2C)c1`, the IC50 [2] was 0.444 µM (not active).

For `COc1ccc(C2/C=C\CN(C(=O)Nc3ccc(C(F)(F)F)cc3)CC(=O)N2Cc2ccc(F)cc2)cc1` (stereo not given), the EC50 [6] was 10.2 µM (active), the EC50 [7] was > 120 µM (not active) and the EC50 [8] was 10.8 µM (active). For the same molecule, the AC50 (INS1) was 6.64 µM (active).

In the case of `CCOC(=S)SCC(=O)Nc1nc(-c2ccc(Br)cc2)cs1`, the EC50 [6] is reported as 8.41 µM (active), the EC50 [7] is reported as 8.99 µM (active) and the EC50 [8] is reported as 5.28 µM (active). The AC50 [12] was 0.722 µM (active).

For `O=[N+]([O-])c1cc(C(F)(F)F)ccc1NCCN=C(S)Nc1ccc(Cl)cc1`, the EC50 [13] was 7.05 µM (active), the EC50 [4] was 11.7 µM (active) and the EC50 [5] was 14.9 µM (active). For the same molecule, the EC50 (Streptococcus) was 7.65 µM (active) and the AC50 [12] was 3.04 µM (active).

In the case of `COc1ccc2cc(Br)ccc2c1CC(=O)NC1CC(C)(C)NC(C)(C)C1`, the EC50 [4] is reported as 20.4 µM (active) and the EC50 [5] is reported as 20.8 µM (active).

With `CCOc1ccc(C(=O)C[n+]2ccccc2C)cc1` the EC50 [6] was > 120 µM (not active) and the EC50 [8] was > 120 µM (not active).

In the case of `CC(=O)c1nn(-c2cccc(Br)c2)cc1C(=O)c1ccc(C)cc1`, the EC50 [11] is reported as > 150 µM (inactive).

With `C=CCn1c(S)nnc1-c1cc2cccc(OC)c2o1` the CC50 [3] was 21.4 µM (active).

In the case of `Cc1c2c(nc3ccccc13)CCC(C)C2` (stereo not given), the CC50 [3] is reported as > 50 µM (active).

In the case of `CN(C1CCCCC1)S(=O)(=O)c1ccc(S(=O)(=O)N2CCCC2)cc1`, the IC50 [2] is reported as 10.4 µM (not active).

With `O=c1c2ccccc2nc(CSc2nnnn2-c2ccccc2)n1-c1ccccc1` the EC50 [4] was 18.1 µM (active) and the EC50 [5] was 17.6 µM (active).

With `COc1cc(C=O)ccc1OCCCOc1ccccc1C(=O)O` the AC50 (Cytochrome P450 2C9) was 17.8 µM (inconclusive).

For `Cc1cccc(NC(=O)Nc2cccc(C#N)c2)n1`, the CC50 [3] was > 50 µM (active).

In the case of `CCOC(=O)c1c(NC(=O)C2=C(C)N=C(S)NC2c2ccc(F)cc2)sc(C)c1C` (stereo not given), the EC50 [6] is reported as > 120 µM (not active), the EC50 [7] is reported as > 120 µM (not active) and the EC50 [8] is reported as > 120 µM (not active).

With `Oc1ccc(C=NNc2nc3ccccc3s2)c(O)c1` the IC50 [1] was 88.4 µM (active).

With `O=C(N/N=C/c1ccc(O)cc1)c1ccc(COc2cc(Cl)ccc2Cl)o1` the AC50 (Cytochrome P450 2C9) was 6.31 µM (inconclusive).

For `C/C(=N\NC(=O)COc1ccc(C(C)(C)C)cc1)c1ccccc1`, the IC50 [2] was 5.74 µM (not active).

In the case of `CCc1ccc(/C(C)=N\Nc2ccc([N+](=O)[O-])cc2)cc1`, the EC50 [11] is reported as > 160 µM (inactive).

With `COc1ccc(CN2CCN(Cc3c[nH]c4ccccc34)CC2)c(OC)c1` the IC50 [1] was 104 µM (active).

For `COc1cc(/C=N/NC(=O)c2ccc3c(c2)OCO3)ccc1O`, the IC50 [1] was 28.5 µM (active).

With `CN(C)c1ccc(/C=N/N2CCN(Cc3ccccc3Cl)CC2)cc1` the IC50 [1] was 69.6 µM (active).

In the case of `CC(=O)O/N=C/c1c(NCc2ccccc2)nc2c(C)cccn2c1=O`, the CC50 [3] is reported as 31.1 µM (active).

In the case of `C/C(=N\Nc1ccc([N+](=O)[O-])cc1)c1ccc(N)cc1`, the IC50 [1] is reported as 109 µM (active).

In the case of `FC(F)(F)c1cccc(N2CCC(/N=C/N3CCCCCC3)=N2)c1`, the IC50 [1] is reported as 56.4 µM (active).

In the case of `Nc1ccc(S(=O)(=O)Nc2cnc3ccccc3n2)cc1` [SULFAQUINOXALINE], the AC50 (Cytochrome P450 2C9) is reported as 3.98 µM (inconclusive).

— ChEMBL document CHEMBL1201862, “PubChem BioAssay data set” (2004)
